Results reported in patent US11072585B2 (PharmAkea, Inc., priority 2015, dated 2021).
pIC50: −log10 of the molar value. Counter-ions that a name gives are not always drawn.

Target: human LOXL2 (Homo sapiens (Human), UniProt Q9Y4K0)
Assay: Human LOXL2 amine oxidase activity assay (Amplex Red)
Type: biochemical
Settings: concentrated conditioned media from CHO cells stably expressing human LOXL2; 2 h at 37° C. with compound; DAP substrate
Protocol: Example B-1: Human LOXL2 Amine Oxidase Activity Assay
LOXL2 amine oxidase activity is evaluated by measuring Amplex Red fluorescence using 10-20× concentrated conditioned media from CHO cells stably expressing human LOXL2. To assay for amine oxidase activity, 10 μL of the concentrated conditioned media is incubated with 2 μL of test compound in DMSO and 73 μL Assay Buffer (50 mM Borate Buffer, pH8) for 2 h at 37° C. After the 2 h incubation, 5 ul of 10 mM 1,5-Diaminopentane (DAP) diluted in Assay Buffer and 10 μl of Amplex Red Mix (8.5 μl Assay Buffer+0.5 μl of 10 mM Amplex Red+1 μl of 500 U/ml Horseradish Peroxidase) are added and the plate mixed and immediately placed on the FlexStaion for fluorescence measurements. Fluorescence is read in kinetic mode every 2 min for 1 hour at excitation=544 and emission=590. The amine oxidase activity is calculated from the slope of the linear portion of the curve.

Sequence of human LOXL2 (Q9Y4K0 26-774): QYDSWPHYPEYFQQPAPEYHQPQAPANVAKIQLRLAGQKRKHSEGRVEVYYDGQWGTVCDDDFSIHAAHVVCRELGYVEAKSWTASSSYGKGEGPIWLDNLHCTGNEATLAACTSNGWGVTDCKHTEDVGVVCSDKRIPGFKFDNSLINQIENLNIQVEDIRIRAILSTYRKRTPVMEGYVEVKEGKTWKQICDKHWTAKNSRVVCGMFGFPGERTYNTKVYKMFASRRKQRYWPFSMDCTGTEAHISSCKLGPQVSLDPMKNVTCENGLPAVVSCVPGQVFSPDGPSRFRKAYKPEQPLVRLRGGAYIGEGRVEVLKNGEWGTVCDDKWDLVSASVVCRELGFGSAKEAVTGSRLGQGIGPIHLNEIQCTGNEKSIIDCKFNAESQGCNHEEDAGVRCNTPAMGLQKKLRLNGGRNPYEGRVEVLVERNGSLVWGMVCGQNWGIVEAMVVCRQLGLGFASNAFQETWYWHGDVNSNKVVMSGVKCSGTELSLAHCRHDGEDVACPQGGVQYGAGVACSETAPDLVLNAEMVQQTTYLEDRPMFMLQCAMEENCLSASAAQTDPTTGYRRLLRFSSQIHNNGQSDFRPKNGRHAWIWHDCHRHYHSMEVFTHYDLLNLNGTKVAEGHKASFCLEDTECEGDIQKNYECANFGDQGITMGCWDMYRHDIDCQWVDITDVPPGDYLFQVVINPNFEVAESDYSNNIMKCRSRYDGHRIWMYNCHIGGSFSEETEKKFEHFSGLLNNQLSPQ

Row | Molecule | pIC50
1 | NCc1cc(NC(=O)c2cccc(C(=O)O)c2)nc(C(F)(F)F)c1 [Compound 1-239, 3-((4-(Aminomethyl)-6-(trifluoromethyl)pyridin-2-yl)carbamoyl)benzoic acid trifluoroacetate] | > 6.52
2 | Cc1cc(=O)n(Cc2cc(CN)cc(C(F)(F)F)n2)c(=O)n1Cc1ccncn1 [Compound 1-243, 3-((4-(Aminomethyl)-6-(trifluoromethyl)pyridin-2-yl)methyl)-6-methyl-1-(pyrimidin-4-ylmethyl)pyrimidine-2,4(1H,3H)-dione hydrochloride] | 6.00 to 6.52
3 | NCc1cc(Oc2cccc(C(=O)N3CC[C@@H](F)C3)c2)nc(C(F)(F)F)c1 [Compound 1-212, (R)-(3-((4-(Aminomethyl)-6-(trifluoromethyl)pyridin-2-yl)oxy)phenyl)(3-fluoropyrrolidin-1-yl)methanone hydrochloride] | > 6.52
4 | NCc1cc(Oc2cccc(Nc3ccccc3)c2)nc(C(F)(F)F)c1 [Compound 1-5, 3-((4-(Aminomethyl)-6-(trifluoromethyl)pyridin-2-yl)oxy)-N-phenylaniline] | > 6.52
5 | NCc1cc(Oc2cccc(C(=O)NCC3CCC(=O)N3)c2)nc(C(F)(F)F)c1 (racemic) [Compound 1-29, Racemic-3-((4-(aminomethyl)-6-(trifluoromethyl)pyridin-2-yl)oxy)-N-((5-oxopyrrolidin-2-yl)methyl)benzamide hydrochloride] | > 6.52
6 | CC1(O)CCN(C(=O)c2cccc(Oc3cc(CN)cc(C(F)(F)F)n3)c2)CC1 [Compound 1-205, (3-((4-(Aminomethyl)-6-(trifluoromethyl)pyridin-2-yl)oxy)phenyl)(4-hydroxy-4-methylpiperidin-1-yl)methanone hydrochloride] | > 6.52
7 | C#Cc1cccc(NC(=O)c2cccc(Oc3cc(CN)cc(C(F)(F)F)n3)c2)c1 [Compound 1-247, 3-((4-(Aminomethyl)-6-(trifluoromethyl)pyridin-2-yl)oxy)-N-(3-ethynylphenyl)benzamide hydrochloride] | > 6.52
8 | N′-(4-(Aminomethyl)-6-(trifluoromethyl)pyridin-2-yl)-N^3-(2-(methylsulfonyl)ethyl)isophthalamide trifluoroacetate [Compound 1-242] | > 6.52
9 | NCc1cc(Oc2cccc(C(=O)N[C@H]3COCC[C@@H]3O)c2)nc(C(F)(F)F)c1 [Compound 1-208, 3-((4-(Aminomethyl)-6-(trifluoromethyl)pyridin-2-yl)oxy)-N-((3S,4S)-4-hydroxytetrahydro-2H-pyran-3-yl)benzamide hydrochloride] | > 6.52
10 | C#C[C@@H](CC(=O)OC)NC(=O)c1cccc(Oc2cc(CN)cc(C(F)(F)F)n2)c1 [Compound 1-222, Methyl (R)-3-(3-((4-(aminomethyl)-6-(trifluoromethyl)pyridin-2-yl)oxy)benzamido)pent-4-ynoate hydrochloride] | > 6.52
11 | NCc1cc(Oc2cccc(C(=O)N3CC[C@@H](O)C3)c2)nc(C(F)(F)F)c1 [Compound 1-18, (R)-(3-((4-(Aminomethyl)-6-(trifluoromethyl)pyridin-2-yl)oxy)phenyl)(3-hydroxypyrrolidin-1-yl)methanone hydrochloride] | > 6.52
12 | C#C[C@H](CC(=O)OC)NC(=O)c1cccc(Oc2cc(CN)cc(C(F)(F)F)n2)c1 [Compound 1-220, Methyl (S)-3-(3-((4-(aminomethyl)-6-(trifluoromethyl)pyridin-2-yl)oxy)benzamido)pent-4-ynoate] | > 6.52
13 | NCc1cc(Oc2cccc(C(=O)O)c2)nc(C(F)(F)F)c1 [Compound 1-224, 3-((4-(Aminomethyl)-6-(trifluoromethyl)pyridin-2-yl)oxy)benzoic acid hydrochloride] | 6.00 to 6.52
14 | NCc1cc(NCc2cccc(C(=O)Nc3ccccc3)c2)nc(C(F)(F)F)c1 [Compound 1-105, 3-(((4-(Aminomethyl)-6-(trifluoromethyl)pyridin-2-yl)amino)methyl)-N-phenylbenzamide hydrochloride] | > 6.52
15 | NCc1cc(Oc2cccc(C(=O)NCc3nn[nH]n3)c2)nc(C(F)(F)F)c1 [Compound 1-13, N-((2H-Tetrazol-5-yl)methyl)-3-((4-(aminomethyl)-6-(trifluoromethyl)pyridin-2-yl)oxy)benzamide hydrochloride] | > 6.52
16 | NCc1cc(Oc2cccc(-c3ccccc3)c2)nc(C(F)(F)F)c1 [Compound 1-2, (2-([1,1′-Biphenyl]-3-yloxy)-6-(trifluoromethyl)pyridin-4-yl)methanamine trifluoroacetate] | > 6.52
17 | CN(CCO)C(=O)c1cccc(Oc2cc(CN)cc(C(F)(F)F)n2)c1 [Compound 1-202, 3-((4-(Aminomethyl)-6-(trifluoromethyl)pyridin-2-yl)oxy)-N-(2-hydroxyethyl)-N-methylbenzamide hydrochloride] | > 6.52

Second part, the molecule after the results:

Row | pIC50 | Molecule
18 | > 6.52 | NCc1cc(O[C@H]2CCCN(C(=O)c3cc(=O)c4ccccc4o3)C2)nc(C(F)(F)F)c1 [Compound 1-48, (S)-2-(3-((4-(Aminomethyl)-6-(trifluoromethyl)pyridin-2-yl)oxy)piperidine-1-carbonyl)-4H-chromen-4-one trifluoroacetate]
19 | < 6.00 | N=C(N)NC(=O)Cn1ccc2c(Oc3cc(CN)cc(C(F)(F)F)n3)cccc21 [Compound 1-234, 2-(4-((4-(Aminomethyl)-6-(trifluoromethyl)pyridin-2-yl)oxy)-1H-indol-1-yl)-N-carbamimidoylacetamide dihydrochloride]
20 | > 6.52 | NCc1cc(Oc2cccc(C(=O)NCCCCc3cn(-c4ccccc4)nn3)c2)nc(C(F)(F)F)c1 [Compound 1-217, 3-((4-(Aminomethyl)-6-(trifluoromethyl)pyridin-2-yl)oxy)-N-(4-(1-phenyl-1H-1,2,3-triazol-4-yl)butyl)benzamide hydrochloride]
21 | > 6.52 | NCc1cc(Oc2cccc(C(=O)NC[C@@H](O)CO)c2)nc(C(F)(F)F)c1 [Compound 1-33, (R)-3-((4-(Aminomethyl)-6-(trifluoromethyl)pyridin-2-yl)oxy)-N-(2,3-dihydroxypropyl)benzamide hydrochloride]
22 | > 6.52 | Cc1cc(=O)n(Cc2cc(CN)cc(C(F)(F)F)n2)c(=O)n1Cc1ccccc1 [Compound 1-134, 3-((4-(Aminomethyl)-6-(trifluoromethyl)pyridin-2-yl)methyl)-1-benzyl-6-methylpyrimidine-2,4(1H,3H)-dione hydrochloride]
23 | 6.00 to 6.52 | NCc1cc(Oc2cccc3c2ccn3CC(=O)N2CCNCC2)nc(C(F)(F)F)c1 [Compound 1-233, 2-(4-((4-(Aminomethyl)-6-(trifluoromethyl)pyridin-2-yl)oxy)-1H-indol-1-yl)-1-(piperazin-1-yl)ethan-1-one dihydrochloride]
24 | > 6.52 | CC(C)(O)CNC(=O)c1cccc(Oc2cc(CN)cc(C(F)(F)F)n2)c1 [Compound 1-32, 3-((4-(Aminomethyl)-6-(trifluoromethyl)pyridin-2-yl)oxy)-N-(2-hydroxy-2-methylpropyl)benzamide hydrochloride]
25 | > 6.52 | NCc1cc(Oc2cccc(C(=O)N3C[C@@H](F)[C@@H](O)C3)c2)nc(C(F)(F)F)c1 (single isomer, unassigned) [Compound 1-250, (R,S) or (S,R)-cis-(3-((4-(Aminomethyl)-6-(trifluoromethyl)pyridin-2-yl)oxy)phenyl)(3-fluoro-4-hydroxypyrrolidin-1-yl)methanone hydrochloride]
26 | < 6.00 | NCc1cc(-n2ccccc2=O)nc(C(F)(F)F)c1 [Compound 1-161, 4′-(Aminomethyl)-6′-(trifluoromethyl)-2H-[1,2′-bipyridin]-2-one hydrochloride]
27 | > 6.52 | NCc1cc(Oc2cccc(C(=O)N3CC4(CCOCC4)C3)c2)nc(C(F)(F)F)c1 [Compound 1-207, (3-((4-(Aminomethyl)-6-(trifluoromethyl)pyridin-2-yl)oxy)phenyl)(7-oxa-2-azaspiro[3.5]nonan-2-yl)methanone hydrochloride]
28 | > 6.52 | NCc1cc(Oc2cccc(-n3ccccc3=O)c2)nc(C(F)(F)F)c1 [Compound 1-169, 1-(3-((4-(Aminomethyl)-6-(trifluoromethyl)pyridin-2-yl)oxy)phenyl)pyridin-2(1H)-one]
29 | 6.00 to 6.52 | C#C[C@H](CC(=O)O)NC(=O)c1cccc(Oc2cc(CN)cc(C(F)(F)F)n2)c1 [Compound 1-221, (S)-3-(3-((4-(aminomethyl)-6-(trifluoromethyl)pyridin-2-yl)oxy)benzamido)pent-4-ynoic acid]
30 | > 6.52 | Cc1cc(=O)oc2cc(NC(=O)c3cccc(Oc4cc(CN)cc(C(F)(F)F)n4)c3)ccc12 [Compound 1-249, 3-((4-(Aminomethyl)-6-(trifluoromethyl)pyridin-2-yl)oxy)-N-(4-methyl-2-oxo-2H-chromen-7-yl)benzamide hydrochloride]
31 | > 6.52 | Cn1cc(-n2ccc3c(Oc4cc(CN)cc(C(F)(F)F)n4)cccc32)cn1 [Compound 1-37, (2-((1-(1-Methyl-1H-pyrazol-4-yl)-1H-indol-4-yl)oxy)-6-(trifluoromethyl)pyridin-4-yl) methanamine hydrochloride]
32 | > 6.52 | NCc1cc(Oc2ccnc(C(=O)Nc3ccccc3)c2)nc(C(F)(F)F)c1 [Compound 1-252, 4-((4-(Aminomethyl)-6-(trifluoromethyl)pyridin-2-yl)oxy)-N-phenylpicolinamide hydrochloride]
33 | > 6.52 | NCc1cc(Oc2cccc(C(=O)N[C@@H]3CCC[C@@H]3O)c2)nc(C(F)(F)F)c1 [Compound 1-209, 3-((4-(Aminomethyl)-6-(trifluoromethyl)pyridin-2-yl)oxy)-N-((1R,2S)-2-hydroxycyclopentyl)benzamide hydrochloride]
